Laboratory results reported in PubChem BioAssay AID248 (DTP/NCI, 2004).
“And” between values parts separate entries of the source, which are not always exact repeats. Equal values may be shown once. Inconclusive results and toxic doses are left out.

Tested on: L1210 leukemia ip in BDF1 mice, survival T/C
Assay: NCI In Vivo Anticancer Drug Screen. Data for tumor model L1210 Leukemia (intraperitoneal) in B6D2F1 (BDF1) mice
Conditions: higher = longer survival
In short: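 Tumor cells were implanted, animals were treated, and survival was followed. The result divides the treated measurement by the vehicle-control measurement.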

[1] = endpoint: mean survival time, dose: 100.0 mg/kg/injection, schedule: Q04DX003 (ip), vehicle: saline
[2] = endpoint: mean survival time, dose: 100.0 mg/kg/injection, schedule: Q04DX003 (ip), vehicle: Klucel (hydroxypropylcellulose) (HPC)
[3] = endpoint: mean survival time, dose: 100.0 mg/kg/injection, schedule: Q01DX001 (ip), vehicle: carboxymethylcellulose (CMC)
[4] = endpoint: mean survival time, dose: 200.0 mg/kg/injection, schedule: Q01DX001 (ip), vehicle: carboxymethylcellulose (CMC)
[5] = endpoint: mean survival time, dose: 400.0 mg/kg/injection, schedule: Q01DX001 (ip), vehicle: carboxymethylcellulose (CMC)
[6] = endpoint: mean survival time, dose: 12.5 mg/kg/injection, schedule: Q04DX002 (ip), vehicle: Klucel (hydroxypropylcellulose) (HPC)
[7] = endpoint: mean survival time, dose: 25.0 mg/kg/injection, schedule: Q04DX002 (ip), vehicle: Klucel (hydroxypropylcellulose) (HPC)

O=S(=O)(O)c1cc(O)c(S(=O)(=O)O)cc1O
T/C [1]: 98 % of control | T/C (endpoint: mean survival time, dose: 200.0 mg/kg/injection, schedule: Q04DX003 (ip), vehicle: saline): 92 % of control | T/C (endpoint: mean survival time, dose: 400.0 mg/kg/injection, schedule: Q04DX003 (ip), vehicle: saline): 110 % of control

BrCc1cccc2ccccc12
T/C (endpoint: mean survival time, dose: 25.0 mg/kg/injection, schedule: Q01DX009 (ip), vehicle: acetone): 96 % of control | T/C (endpoint: mean survival time, dose: 50.0 mg/kg/injection, schedule: Q01DX009 (ip), vehicle: acetone): 95 % of control | T/C (endpoint: mean survival time, dose: 50.0 mg/kg/injection, schedule: Q04DX003 (ip), vehicle: saline): 90 % of control | T/C (endpoint: mean survival time, dose: 100.0 mg/kg/injection, schedule: Q01DX001 (ip), vehicle: saline): 98 % of control | T/C (endpoint: mean survival time, dose: 100.0 mg/kg/injection, schedule: Q01DX009 (ip), vehicle: acetone): 95 % of control | T/C [1]: 87 % of control | T/C (endpoint: mean survival time, dose: 200.0 mg/kg/injection, schedule: Q01DX001 (ip), vehicle: saline): 102 % of control

CCC(C)N(C)/N=N/c1nc[nH]c1C(N)=O (stereo not drawn)
T/C (endpoint: mean survival time, dose: 11.0 mg/kg/injection, schedule: Q01DX009 (ip), vehicle: Klucel (hydroxypropylcellulose) (HPC)): 110 % of control | T/C (endpoint: mean survival time, dose: 16.7 mg/kg/injection, schedule: Q01DX009 (ip), vehicle: Klucel (hydroxypropylcellulose) (HPC)): 123 % of control | T/C (endpoint: mean survival time, dose: 16.8 mg/kg/injection, schedule: Q01DX009 (ip), vehicle: Klucel (hydroxypropylcellulose) (HPC)): 124 % of control | T/C (endpoint: mean survival time, dose: 25.0 mg/kg/injection, schedule: Q01DX009 (ip), vehicle: Klucel (hydroxypropylcellulose) (HPC)): 124 % of control | T/C (endpoint: mean survival time, dose: 25.0 mg/kg/injection, schedule: Q04DX003 (ip), vehicle: water): 121 % of control | T/C (endpoint: mean survival time, dose: 38.0 mg/kg/injection, schedule: Q01DX009 (ip), vehicle: Klucel (hydroxypropylcellulose) (HPC)): 159 % of control | T/C (endpoint: mean survival time, dose: 50.0 mg/kg/injection, schedule: Q01DX001 (ip), vehicle: water): 101 % of control | T/C (endpoint: mean survival time, dose: 50.0 mg/kg/injection, schedule: Q01DX009 (ip), vehicle: water): 154 % of control | T/C (endpoint: mean survival time, dose: 50.0 mg/kg/injection, schedule: Q04DX003 (ip), vehicle: water): 106 % of control | T/C (endpoint: mean survival time, dose: 58.0 mg/kg/injection, schedule: Q01DX009 (ip), vehicle: Klucel (hydroxypropylcellulose) (HPC)): 159 % of control | T/C (endpoint: mean survival time, dose: 88.0 mg/kg/injection, schedule: Q01DX009 (ip), vehicle: Klucel (hydroxypropylcellulose) (HPC)): 150 % of control and 186 % of control | T/C (endpoint: mean survival time, dose: 100.0 mg/kg/injection, schedule: Q01DX001 (ip), vehicle: water): 110 % of control | T/C (endpoint: mean survival time, dose: 100.0 mg/kg/injection, schedule: Q01DX009 (ip), vehicle: water): 120 % of control | T/C (endpoint: mean survival time, dose: 100.0 mg/kg/injection, schedule: Q04DX003 (ip), vehicle: water): 110 % of control | T/C (endpoint: mean survival time, dose: 133.0 mg/kg/injection, schedule: Q01DX009 (ip), vehicle: Klucel (hydroxypropylcellulose) (HPC)): 106 % of control | T/C (endpoint: mean survival time, dose: 133.0 mg/kg/injection, schedule: Q04DX003 (ip), vehicle: saline with Tween-80): 116 % of control and 124 % of control | T/C (endpoint: mean survival time, dose: 200.0 mg/kg/injection, schedule: Q01DX001 (ip), vehicle: water): 109 % of control | T/C (endpoint: mean survival time, dose: 200.0 mg/kg/injection, schedule: Q04DX003 (ip), vehicle: saline with Tween-80): 121 % of control | T/C (endpoint: mean survival time, dose: 200.0 mg/kg/injection, schedule: Q04DX003 (ip), vehicle: water): 106 % of control | T/C (endpoint: mean survival time, dose: 300.0 mg/kg/injection, schedule: Q04DX003 (ip), vehicle: saline with Tween-80): 157 % of control | T/C (endpoint: mean survival time, dose: 400.0 mg/kg/injection, schedule: Q04DX003 (ip), vehicle: water): 94 % of control | T/C (endpoint: median survival time, dose: 25.0 mg/kg/injection, schedule: Q01DX009 (ip), vehicle: Klucel (hydroxypropylcellulose) (HPC)): 115 % of control | T/C (endpoint: median survival time, dose: 50.0 mg/kg/injection, schedule: Q01DX009 (ip), vehicle: Klucel (hydroxypropylcellulose) (HPC)): 155 % of control | T/C (endpoint: median survival time, dose: 75.0 mg/kg/injection, schedule: Q01DX009 (ip), vehicle: Klucel (hydroxypropylcellulose) (HPC)): 155 % of control | T/C (endpoint: median survival time, dose: 100.0 mg/kg/injection, schedule: Q01DX009 (ip), vehicle: Klucel (hydroxypropylcellulose) (HPC)): 155 % of control | T/C (endpoint: median survival time, dose: 100.0 mg/kg/injection, schedule: Q04DX003 (ip), vehicle: Klucel (hydroxypropylcellulose) (HPC)): 110 % of control | T/C (endpoint: median survival time, dose: 200.0 mg/kg/injection, schedule: Q04DX003 (ip), vehicle: Klucel (hydroxypropylcellulose) (HPC)): 120 % of control | T/C (endpoint: median survival time, dose: 300.0 mg/kg/injection, schedule: Q04DX003 (ip), vehicle: Klucel (hydroxypropylcellulose) (HPC)): 120 % of control | T/C (endpoint: median survival time, dose: 400.0 mg/kg/injection, schedule: Q04DX003 (ip), vehicle: Klucel (hydroxypropylcellulose) (HPC)): 100 % of control

O=C1C(Br)=CC(=NBr)C=C1Br
T/C (endpoint: mean survival time, dose: 25.0 mg/kg/injection, schedule: Q04DX003 (ip), vehicle: Klucel (hydroxypropylcellulose) (HPC)): 101 % of control | T/C (endpoint: mean survival time, dose: 50.0 mg/kg/injection, schedule: Q04DX003 (ip), vehicle: Klucel (hydroxypropylcellulose) (HPC)): 101 % of control | T/C [2]: 97 % of control

COC(=O)c1[nH]cnc1N
T/C (endpoint: mean survival time, dose: 50.0 mg/kg/injection, schedule: Q01DX001 (ip), vehicle: carboxymethylcellulose (CMC)): 97 % of control | T/C [3]: 105 % of control | T/C [4]: 97 % of control | T/C [5]: 94 % of control

Cc1ccc2c(ccc3c[n+]4c5ccccc5ccc4n32)c1
T/C (endpoint: mean survival time, dose: 5.0 mg/kg/injection, schedule: Q01DX001 (ip), vehicle: saline): 97 % of control | T/C (endpoint: mean survival time, dose: 10.0 mg/kg/injection, schedule: Q01DX001 (ip), vehicle: saline): 100 % of control | T/C (endpoint: mean survival time, dose: 20.0 mg/kg/injection, schedule: Q01DX001 (ip), vehicle: saline): 101 % of control | T/C (endpoint: mean survival time, dose: 40.0 mg/kg/injection, schedule: Q01DX001 (ip), vehicle: saline): 117 % of control

CC/C(C)=N\NC(N)=S
T/C (endpoint: mean survival time, dose: 6.25 mg/kg/injection, schedule: Q01DX009 (ip), vehicle: Klucel (hydroxypropylcellulose) (HPC)): 91 % of control | T/C (endpoint: mean survival time, dose: 12.5 mg/kg/injection, schedule: Q01DX009 (ip), vehicle: Klucel (hydroxypropylcellulose) (HPC)): 92 % of control | T/C [6]: 92 % of control | T/C [7]: 98 % of control

COc1ccc(OC)c2c1C1C=CC2C1
T/C (endpoint: mean survival time, dose: 177.0 mg/kg/injection, schedule: Q01DX001 (ip), vehicle: other): 98 % of control | T/C (endpoint: mean survival time, dose: 266.0 mg/kg/injection, schedule: Q01DX001 (ip), vehicle: other): 94 % of control | T/C (endpoint: mean survival time, dose: 400.0 mg/kg/injection, schedule: Q01DX001 (ip), vehicle: other): 89 % of control | T/C (endpoint: mean survival time, dose: 600.0 mg/kg/injection, schedule: Q01DX001 (ip), vehicle: other): 96 % of control

Cc1ccc(CC(=O)N2CCOCC2)cc1
T/C [3]: 106 % of control | T/C [4]: 97 % of control | T/C [5]: 92 % of control

CN1CCC(C=C2c3ccccc3CCc3ccccc32)C1 (stereo not drawn)
T/C (endpoint: mean survival time, dose: 3.12 mg/kg/injection, schedule: Q01DX009 (ip), vehicle: saline): 100 % of control | T/C (endpoint: mean survival time, dose: 6.25 mg/kg/injection, schedule: Q01DX009 (ip), vehicle: saline): 92 % of control | T/C (endpoint: mean survival time, dose: 12.5 mg/kg/injection, schedule: Q01DX009 (ip), vehicle: saline): 100 % of control | T/C (endpoint: mean survival time, dose: 25.0 mg/kg/injection, schedule: Q01DX009 (ip), vehicle: saline): 98 % of control

COc1ccc(CC(N)C(=O)O)cc1 (stereo not drawn)
T/C (endpoint: mean survival time, dose: 100.0 mg/kg/injection, schedule: Q01DX009 (ip), vehicle: Klucel (hydroxypropylcellulose) (HPC)): 103 % of control | T/C [2]: 101 % of control | T/C (endpoint: mean survival time, dose: 200.0 mg/kg/injection, schedule: Q01DX009 (ip), vehicle: Klucel (hydroxypropylcellulose) (HPC)): 92 % of control | T/C (endpoint: mean survival time, dose: 200.0 mg/kg/injection, schedule: Q04DX003 (ip), vehicle: Klucel (hydroxypropylcellulose) (HPC)): 101 % of control | T/C (endpoint: mean survival time, dose: 400.0 mg/kg/injection, schedule: Q04DX003 (ip), vehicle: Klucel (hydroxypropylcellulose) (HPC)): 106 % of control

C=CCOc1c(Br)cc(Br)cc1Br
T/C [6]: 96 % of control | T/C [7]: 100 % of control | T/C (endpoint: mean survival time, dose: 50.0 mg/kg/injection, schedule: Q04DX002 (ip), vehicle: Klucel (hydroxypropylcellulose) (HPC)): 86 % of control | T/C (endpoint: mean survival time, dose: 100.0 mg/kg/injection, schedule: Q04DX002 (ip), vehicle: Klucel (hydroxypropylcellulose) (HPC)): 95 % of control | T/C (endpoint: mean survival time, dose: 200.0 mg/kg/injection, schedule: Q04DX002 (ip), vehicle: Klucel (hydroxypropylcellulose) (HPC)): 89 % of control | T/C (endpoint: mean survival time, dose: 400.0 mg/kg/injection, schedule: Q04DX002 (ip), vehicle: Klucel (hydroxypropylcellulose) (HPC)): 95 % of control

CC(C)OP(=O)(OC=C(Cl)Cl)OC(C)C
T/C (endpoint: mean survival time, dose: 75.0 mg/kg/injection, schedule: Q01DX001 (ip), vehicle: saline): 93 % of control | T/C (endpoint: mean survival time, dose: 150.0 mg/kg/injection, schedule: Q01DX001 (ip), vehicle: saline): 91 % of control
